Measured values published in patent US9012642B2, “Pyrrolopyridinone compounds and methods for treating HIV” (ViiV Healthcare UK Limited, priority 2011, dated 2015).
pIC50: −log10 of the molar value. Where two headings read alike, the source gives them in different places.

System: HIV
Assay: HIV MT4 Assay (antiviral HIV activity in MT-4 cells)
Format: cell-based
Protocol: Antiviral HIV activity and cytotoxicity values for compounds of the invention from Table 1 were measured in parallel in the HTLV-1 transformed cell line MT-4 based on the method previously described (Hazen et al., 2007, In vitro antiviral activity of the novel, tyrosyl-based human immunodeficiency virus (HIV) type 1 protease inhibitor brecanavir (GW640385) in combination with other antiretrovirals and against a panel of protease inhibitor-resistant HIV (Hazen et al., “In vitro antiviral activity of the novel, tyrosyl-based human immunodeficiency virus (HIV) type 1 protease inhibitor brecanavir (GW640385) in combination with other antiretrovirals and against a panel of protease inhibitor-resistant HIV”, Antimicrob. Agents Chemother. 2007, 51: 3147-3154; and Pauwels et al., “Sensitive and rapid assay on MT-4 cells for the detection of antiviral compounds against the AIDS virus”, (J. of Virological Methods 1987, 16: 171-185).
Luciferase activity was measured 96 hours later by adding a cell titer glo (Promega, Madison, Wis.). Percent inhibition of cell protection data was plotted relative to no compound control. Under the same condition, cytotoxicity of the compounds was determined using cell titer Glo™ (Promega, Madison, Wis.). IC50s were determined from a 10 point dose response curve using 3-4-fold serial dilution for each compound, which spans a concentration range >1000 fold.
These values are plotted against the molar compound concentrations using the standard four parameter logistic equation: y=((Vmax*x^n)/(K^n+x^n))+Y^2
Y^2=minimum y n=slope factor
Vmax=maximum y x=compound concentration [M]

[1] = Human immunodeficiency virus 1, MT4, HTLV-1 transformed cell line MT-4, luciferase activity measured 96 hours later, Table 3, read-out: HIV MT4 Assay IC50
[2] = MT4, 96 h, read-out: MT4 (IC50)

Row | Compound | pIC50 [1] | pIC50 [2]
1 | Cc1ccc(-c2c(C(OC(C)(C)C)C(=O)O)n(C)c(=O)c3c2ccn3Cc2ccc(SC(F)(F)F)cc2)cc1 (centres unmarked) [Example 23, 2-(tert-butoxy)-2-(6-methyl-7-oxo-4-(p-tolyl)-1-(4-((trifluoromethyl)thio)benzyl)-6,7-dihydro-1H-pyrrolo[2,3-c]pyridin-5-yl)acetic acid] | 5.82 | 5.82
2 | Cc1ccc(-c2c([C@H](OC(C)(C)C)C(=O)O)n(C)c(=O)c3c2ccn3Cc2ccc(F)cc2)cc1 [Example 24, (S)-2-(tert-butoxy)-2-(1-(4-fluorobenzyl)-6-methyl-7-oxo-4-(p-tolyl)-6,7-dihydro-1H-pyrrolo[2,3-c]pyridin-5-yl)acetic acid] | 7.40 | 7.40
3 | Cc1ccc(-c2c(C(OC(C)(C)C)C(=O)O)n(C)c(=O)c3c2ccn3Cc2cccs2)cc1 (centres unmarked) [Example 25, 2-(tert-butoxy)-2-(6-methyl-7-oxo-1-(thiophen-2-ylmethyl)-4-(p-tolyl)-6,7-dihydro-1H-pyrrolo[2,3-c]pyridin-5-yl)acetic acid] | 6.66 | 6.66
4 | Cc1ccc(-c2c(C(OC(C)(C)C)C(=O)O)n(C)c(=O)c3c2ccn3CCc2ccc(F)cc2)cc1 (centres unmarked) [Example 26, 2-(tert-butoxy)-2-(1-(4-fluorophenethyl)-6-methyl-7-oxo-4-(p-tolyl)-6,7-dihydro-1H-pyrrolo[2,3-c]pyridin-5-yl)acetic acid] | 5.65 | 5.65
5 | Cc1ccc(-c2c(C(OC(C)(C)C)C(=O)O)n(C)c(=O)c3c2ccn3Cc2ccc(S(C)(=O)=O)cc2)cc1 (centres unmarked) [Example 27, 2-(tert-butoxy)-2-(6-methyl-1-(4-(methylsulfonyl)benzyl)-7-oxo-4-(p-tolyl)-6,7-dihydro-1H-pyrrolo[2,3-c]pyridin-5-yl)acetic acid] | 5.41 | 5.41
6 | Cc1ccc(-c2c(C(OC(C)(C)C)C(=O)O)n(C)c(=O)c3c2ccn3Cc2ccc(F)c(F)c2)cc1 (centres unmarked) [Example 28, 2-(tert-butoxy)-2-(1-(3,4-difluorobenzyl)-6-methyl-7-oxo-4-(p-tolyl)-6,7-dihydro-1H-pyrrolo[2,3-c]pyridin-5-yl)acetic acid] | 7.10 | 7.10
7 | COc1ccc(Cn2ccc3c(-c4ccc(C)cc4)c(C(OC(C)(C)C)C(=O)O)n(C)c(=O)c32)cc1 (centres unmarked) [Example 29, 2-(tert-butoxy)-2-(1-(4-methoxybenzyl)-6-methyl-7-oxo-4-(p-tolyl)-6,7-dihydro-1H-pyrrolo[2,3-c]pyridin-5-yl)acetic acid] | 6.77 | 6.77
8 | Cc1ccc(-c2c(C(OC(C)(C)C)C(=O)O)n(C)c(=O)c3c2ccn3C)cc1 (centres unmarked) [Example 30, 2-(tert-butoxy)-2-(1,6-dimethyl-7-oxo-4-(p-tolyl)-6,7-dihydro-1H-pyrrolo[2,3-c]pyridin-5-yl)acetic acid] | 5.96 | 5.96
9 | Cc1ccc(-c2c(C(OC(C)(C)C)C(=O)O)n(C)c(=O)c3c2ccn3Cc2ccc(Cl)c(F)c2)cc1 (centres unmarked) [Example 31, 2-(tert-butoxy)-2-(1-(4-chloro-3-fluorobenzyl)-6-methyl-7-oxo-4-(p-tolyl)-6,7-dihydro-1H-pyrrolo[2,3-c]pyridin-5-yl)acetic acid] | 6.96 | 6.96
10 | Cc1ccc(-c2c(C(OC(C)(C)C)C(=O)O)n(C)c(=O)c3c2ccn3Cc2cc(F)c(F)c(F)c2)cc1 (centres unmarked) [Example 32, 2-(tert-butoxy)-2-(6-methyl-7-oxo-4-(p-tolyl)-1-(3,4,5-trifluorobenzyl)-6,7-dihydro-1H-pyrrolo[2,3-c]pyridin-5-yl)acetic acid] | 7.10 | 7.10
11 | Cc1ccc(-c2c(C(OC(C)(C)C)C(=O)O)n(C)c(=O)c3c2ccn3Cc2ccc3c(c2)OCO3)cc1 (centres unmarked) [Example 33, 2-(1-(benzo[d][1,3]dioxol-5-ylmethyl)-6-methyl-7-oxo-4-(p-tolyl)-6,7-dihydro-1H-pyrrolo[2,3-c]pyridin-5-yl)-2-(tert-butoxy)acetic acid] | 6.68 | 6.68
12 | Cc1ccc(-c2c(C(OC(C)(C)C)C(=O)O)n(C)c(=O)c3c2ccn3-c2ccc(F)cc2)cc1 (centres unmarked) [Example 34, 2-(tert-butoxy)-2-(1-(4-fluorophenyl)-6-methyl-7-oxo-4-(p-tolyl)-6,7-dihydro-1H-pyrrolo[2,3-c]pyridin-5-yl)acetic acid] | 6.11 | 6.11
13 | Cc1ccc(-c2c(C(OC(C)(C)C)C(=O)O)n(C)c(=O)c3c2ccn3CC(=O)Nc2ccc(F)cc2)cc1 (centres unmarked) [Example 35, 2-(tert-butoxy)-2-(1-(2-((4-fluorophenyl)amino)-2-oxoethyl)-6-methyl-7-oxo-4-(p-tolyl)-6,7-dihydro-1H-pyrrolo[2,3-c]pyridin-5-yl)acetic acid] | 6.00 | 6.00
14 | COc1ccc(-c2c(C(OC(C)(C)C)C(=O)O)n(C)c(=O)c3c2ccn3Cc2ccc(F)cc2)cc1 (centres unmarked) [Example 36, 2-(tert-butoxy)-2-(1-(4-fluorobenzyl)-4-(4-methoxyphenyl)-6-methyl-7-oxo-6,7-dihydro-1H-pyrrolo[2,3-c]pyridin-5-yl)acetic acid] | 7.22 | 7.22
15 | Cn1c(C(OC(C)(C)C)C(=O)O)c(-c2ccc(F)cc2)c2ccn(Cc3ccc(F)cc3)c2c1=O (centres unmarked) [Example 37, 2-(tert-butoxy)-2-(1-(4-fluorobenzyl)-4-(4-fluorophenyl)-6-methyl-7-oxo-6,7-dihydro-1H-pyrrolo[2,3-c]pyridin-5-yl)acetic acid] | 6.17 | 6.17
16 | Cc1c(-c2c(C(OC(C)(C)C)C(=O)O)n(C)c(=O)c3c2ccn3Cc2ccccc2)ccc2c1CCCO2 (centres unmarked) [Example 38, 2-(1-benzyl-6-methyl-4-(5-methylchroman-6-yl)-7-oxo-6,7-dihydro-1H-pyrrolo[2,3-c]pyridin-5-yl)-2-(tert-butoxy)acetic acid] | 7.15 | 7.15
17 | Cc1c(-c2c(C(OC(C)(C)C)C(=O)O)n(C)c(=O)c3c2ccn3C)ccc2c1CCCO2 (centres unmarked) [Example 40, 2-(tert-butoxy)-2-(1,6-dimethyl-4-(5-methylchroman-6-yl)-7-oxo-6,7-dihydro-1H-pyrrolo[2,3-c]pyridin-5-yl)acetic acid] | 6.30 | 6.30
18 | Cc1c(-c2c(C(OC(C)(C)C)C(=O)O)n(C)c(=O)c3c2ccn3Cc2ccccn2)ccc2c1CCCO2 (centres unmarked) [Example 42, 2-(tert-butoxy)-2-(6-methyl-4-(5-methylchroman-6-yl)-7-oxo-1-(pyridin-2-ylmethyl)-6,7-dihydro-1H-pyrrolo[2,3-c]pyridin-5-yl)acetic acid] | 6.27 | 6.27
19 | COCCn1ccc2c(-c3ccc4c(c3C)CCCO4)c(C(OC(C)(C)C)C(=O)O)n(C)c(=O)c21 (centres unmarked) [Example 43, 2-(tert-butoxy)-2-(1-(2-methoxyethyl)-6-methyl-4-(5-methylchroman-6-yl)-7-oxo-6,7-dihydro-1H-pyrrolo[2,3-c]pyridin-5-yl)acetic acid] | 5.96 | 5.96
20 | Cc1c(-c2c(C(OC(C)(C)C)C(=O)O)n(C)c(=O)c3c2ccn3Cc2ccc(Cl)cc2)ccc2c1CCCO2 (centres unmarked) [Example 44, 2-(tert-butoxy)-2-(1-(4-chlorobenzyl)-6-methyl-4-(5-methylchroman-6-yl)-7-oxo-6,7-dihydro-1H-pyrrolo[2,3-c]pyridin-5-yl)acetic acid] | 7.30 | 7.30
21 | Cc1c(-c2c(C(OC(C)(C)C)C(=O)O)n(C)c(=O)c3c2ccn3Cc2cccc(F)c2)ccc2c1CCCO2 (centres unmarked) [Example 45, 2-(tert-butoxy)-2-(1-(3-fluorobenzyl)-6-methyl-4-(5-methylchroman-6-yl)-7-oxo-6,7-dihydro-1H-pyrrolo[2,3-c]pyridin-5-yl)acetic acid] | 7.10 | 7.10
22 | Cc1c(-c2c(C(OC(C)(C)C)C(=O)O)n(C)c(=O)c3c2ccn3Cc2ccc(C(F)(F)F)cc2)ccc2c1CCCO2 (centres unmarked) [Example 46, 2-(tert-butoxy)-2-(6-methyl-4-(5-methylchroman-6-yl)-7-oxo-1-(4-(trifluoromethyl)benzyl)-6,7-dihydro-1H-pyrrolo[2,3-c]pyridin-5-yl)acetic acid] | 7.05 | 7.05
23 | Cc1c(-c2c(C(OC(C)(C)C)C(=O)O)n(C)c(=O)c3c2ccn3Cc2ccc([N+](=O)[O-])cc2)ccc2c1CCCO2 (centres unmarked) [Example 47, 2-(tert-butoxy)-2-(6-methyl-4-(5-methylchroman-6-yl)-1-(4-nitrobenzyl)-7-oxo-6,7-dihydro-1H-pyrrolo[2,3-c]pyridin-5-yl)acetic acid] | 7.40 | 7.40
24 | Cc1c(-c2c(C(OC(C)(C)C)C(=O)O)n(C)c(=O)c3c2ccn3Cc2cc(F)ccc2F)ccc2c1CCCO2 (centres unmarked) [Example 48, 2-(tert-butoxy)-2-(1-(2,5-difluorobenzyl)-6-methyl-4-(5-methylchroman-6-yl)-7-oxo-6,7-dihydro-1H-pyrrolo[2,3-c]pyridin-5-yl)acetic acid] | 7.52 | 7.52
25 | Cc1ccc(Cn2ccc3c(-c4ccc5c(c4C)CCCO5)c(C(OC(C)(C)C)C(=O)O)n(C)c(=O)c32)cc1F (centres unmarked) [Example 49, 2-(tert-butoxy)-2-(1-(3-fluoro-4-methylbenzyl)-6-methyl-4-(5-methylchroman-6-yl)-7-oxo-6,7-dihydro-1H-pyrrolo[2,3-c]pyridin-5-yl)acetic acid] | 7.40 | 7.40
